Results from US11000574B2, “Hyaluronic acid containing compositions for prevention of the formation of post-surgical scars and post-surgical adhesions” (PERGAMUM AB, priority 2009, dated 2021).
Bridge positions count the residues as written; N and C are the ends. Peptide text beside a SMILES is read from it.

Legend:
[1] = In vitro release of PXL01 from sodium hyaluronate gel; type: physicochemical; conditions: 6 mg/ml PXL01 in 1.5% sodium hyaluronate, 37° C., PBS pH 7.4, within 1 hour
Protocol: (§1) PXL01 dissolved in sodium chloride solution was added to 2.5% sodium hyaluronate solution at a volume ratio of 2/5 PXL01 solution and 3/5 sodium hyaluronate solution, to obtain 1.5 or 6 mg/ml PXL01 in 1.5% sodium hyaluronate. The solutions were homogenized by drawing the mixtures several times through 2.1 mm diameter needles.
0.25 ml of the formulated product was placed into the well of the tissue culture plate (24-Flat Well Tissue Culture Plate, Techno Plastic Products AG), resulting in a thin film of approximately 1.3 mm. The plates were placed into thermostat (37° C.) for 1 h to allow the product to reach the temperature of 37° C. 0.5 ml of the release medium (PBS, pH 7.4) re-equilibrated at 37° C. was carefully layered over the surface of the gel and the tissue culture plates were transferred into a thermostatic shaker (60 rpm, 37° C.). At predetermined time intervals, 10 microl aliquots of the aqueous solution were withdrawn from the release media. The concentration of PXL01 released was monitored at wavelength of 230 nm using a spectrophotometric measurement. Because the measurement of absorbance at 230 nm could detect the peptide as well as dissolved sodium hyaluronate in the release medium, a control release medium was used which has the same amount of sodium hyaluronate without any PXL01 as that of sodium hyaluronate with the drug.

[2] = Solubility and stability of PXL01 in sodium hyaluronate; type: physicochemical
Protocol: as §1
PXL01 concentration and homogeneity in sodium hyaluronate were determined by high performance liquid chromatography with UV detector (Agilent model 1100) at 220 nm. The analytical column used was a Vydac 218TP (C18, 5 μm, 250×4.6 mm). The mobile phases used (0.1% TFA in water containing 1% acetonitrile (solvent A) and 0.1% TFA in acetonitrile (solvent B)) were run at a gradient with a flow rate of 1.0 ml/min. Diluted PXL01 standards were applied to create calibration curves.
Samples were prepared by adding hyaluronidase solution (Hyaluronidase from Streptomyces hyalurolyticus, Sigma-Aldrich, St Louis, Mo.) with an enzyme activity of 500 units/ml to sample solutions. The mixtures were agitated for 2 h at room temperature and samples were diluted as needed with TFA in water, followed by additional mixing. The samples were centrifuged at 7000 rpm for 5 min before injection to the column.

[3] = system: post-surgical intra-abdominal adhesions; experiment: Sidewall defect-cecum abrasion model in rat (post-surgical adhesion prevention); type: in vivo, Sprague-Dawley rats; conditions: for adhesion formation compared with control group: rat, 6 days after surgery
Protocol: Female Sprague-Dawley rats (200-250 g, Charles River Laboratories, Sulzfeldt, Germany) were kept in a 12 hours light-dark cycle and were cared for in accordance with regulations for the protection of laboratory animals. The study was performed after prior approval from the local ethical committee.
Cecum abrasion and excision of the abdominal wall were performed to induce de novo adhesions as described previously (Harris et al. 1995. Analysis of the kinetics of peritoneal adhesion formation in the rat and evaluation of potential antiadhesive agents. Surgery 117, 663-669). Briefly, the rats were anaesthetized with isoflurane (Isoba®vet, Shering-Plough Animal Health, Farum, Denmark) and buprenorfin (48 microg/kg, Temgesic, Shering-Plough, Brussels, Belgium) was given as post-operative pain reliever. A 5-cm-long midline incision of the abdomen was performed and a rectangle full thickness injury (5 mm×25 mm) was made on the peritoneal wall through both the parietal peritoneum and the muscular fascia. Also, an area of the serous membrane on the both sides of the cecum, approximately 10 mm×15 mm, was gently rubbed using cotton gauze until petechial hemorrhages appeared. The rats were randomized to untreated control group or treated groups. Excessive blood from the injury was removed and the test substance was applied over the abraded areas using a syringe. The laparotomy wound was closed with a continuous suture and the skin was closed with metal clips (Appose ULC35W, TycoHealthcare Group LP, Norwalk, Conn., US). […] The abdomen was opened and the adhesions were scored by an evaluator blinded to the treatment. The incidence of adhesions between abdominal incision and the abraded cecum was quantified as a percentage of animals developing wall to wall adhesions connecting these injuries, in each group. […] Finally, the percentage of rats free from any abdominal adhesions was assessed in each group. Any possible signs of peritoneal inflammation (erythema and/or edema) or disrupted wound healing were recorded in connection to the necropsies. […]

CC[C@H](C)[C@H](NC(=O)[C@@H]1CSSC[C@H](NC(=O)[C@H](CCCCN)NC(=O)[C@@H](NC(=O)[C@H](C)NC(=O)[C@H](CCC(=O)O)NC(C)=O)[C@@H](C)O)C(=O)N[C@@H](Cc2ccccc2)C(=O)N[C@@H](CCC(N)=O)C(=O)N[C@@H](Cc2c[nH]c3ccccc23)C(=O)N[C@@H](CCC(N)=O)C(=O)N[C@@H](CCCNC(=N)N)C(=O)N[C@@H](CC(N)=O)C(=O)N[C@@H](CCSC)C(=O)N[C@@H](CCCNC(=N)N)C(=O)N[C@@H](CCCCN)C(=O)N[C@@H](C(C)C)C(=O)N[C@@H](CCCNC(=N)N)C(=O)NCC(=O)N2CCC[C@H]2C(=O)N2CCC[C@H]2C(=O)N[C@@H](C(C)C)C(=O)N[C@@H](CO)C(=O)N1)C(=O)N[C@@H](CCCCN)C(=O)N[C@@H](CCCNC(=N)N)C(N)=O [PXL01] (Ac-EATKCFQWQRNMRKVRGPPVSCIKR-NH2; disulfide 5-22)
PXL01 released from the sodium hyaluronate gel formulation (cumulative drug released) [1]: approximately 70%
solubility in sodium hyaluronate [2]: readily soluble
stability in sodium hyaluronate [2]: sufficiently stable
adhesion formation compared with control group ([3]; 3 mg of PXL01 in water solution, single dose in connection to the surgery): No significant reduction
adhesion formation compared with control group ([3]; 3 doses of 1 mg of PXL01 in water solution (at operation, 24 and 48 h post-surgery)): marked reduction
adverse events (listlessness, peritoneal inflammation, inhibition of wound healing) ([3]; rats treated with PXL01 at any concentration): No obvious adverse events
